Our source for the Activity and inhibition values is ChEMBL document CHEMBL3272078, “Stereochemical analogs of a muscarinic, ganglionic stimulant. 3. 2,3-Substituted bicyclo(2.2.1)hept-5-enes and -heptanes related to 4-(N-(3-chlorophenyl)carbamoyloxy)-2-butynyltrimethylammonium chloride (McN-A-343)” (J Med Chem, 1976).

Format in all cases: functional, organism-based
Assay [1] deals with Felis catus. Kind of assay: Ganglion-stimulant activity in cat assessed as pressor response up to 1000 ug/kg, iv.
Assay [2] has as its system Felis catus. Kind of assay: Ganglion-stimulant activity in iv dosed cat assessed as depressor response.
Assay [3] relates to Felis catus. Kind of assay: Inhibition of McN-A-343-induced pressor response in iv dosed cat.

Calls of active or inactive are those of the source. No cut-off for these calls is given here.

On to `C[N+](C)(C)CC#CCOC(=O)Nc1cccc(Cl)c1`, for which the outcome in assay [1] was Active.

`C[N+](C)(C)C[C@@H]1[C@H](COC(=O)Nc2ccc(Cl)cc2)[C@H]2C=C[C@H]1C2`: the outcome in assay [2] and in assay [1] was inactive. Further, the inhibition entry in assay [3] was “inactive”.

With `C[N+](C)(C)C[C@H]1[C@@H](COC(=O)Nc2ccc(Cl)cc2)[C@H]2C=C[C@H]1C2`, the outcome in assay [2] and in assay [1] was inactive. Further, the inhibition result in assay [3] was “inactive”.

For `C[N+](C)(C)C[C@@H]1[C@@H](COC(=O)Nc2ccc(Cl)cc2)[C@H]2C=C[C@H]1C2`, the result in assay [2] and in assay [1] was inactive. Moreover, in assay [3], the inhibition entry is “inactive”.

With `C[N+](C)(C)C[C@@H]1[C@H]2CC[C@@H](C2)[C@@H]1COC(=O)Nc1ccc(Cl)cc1`, the outcome in assay [2] and in assay [1] was inactive. Further, the inhibition entry in assay [3] is “inactive”.

For the compound `C[N+](C)(C)C[C@@H]1[C@H]2CC[C@@H](C2)[C@H]1COC(=O)Nc1ccc(Cl)cc1`, the result in assay [2] and in assay [1] was inactive. The inhibition entry in assay [3] was “inactive”.

Consider `C[N+](C)(C)C[C@H]1[C@H]2CC[C@@H](C2)[C@@H]1COC(=O)Nc1ccc(Cl)cc1`, for which the outcome in assay [2] and in assay [1] was inactive. The inhibition entry in assay [3] is “inactive”.

As to `C[N+](C)(C)C[C@H]1[C@H](COC(=O)Nc2ccc(Cl)cc2)[C@H]2C=C[C@H]1C2`, the outcome in assay [2] and in assay [1] was inactive. The inhibition result in assay [3] is “inactive”.

For `C[N+](C)(C)C[C@H]1[C@H]2CC[C@@H](C2)[C@H]1COC(=O)Nc1ccc(Cl)cc1`, the result in assay [2] and in assay [1] was inactive. Besides, the inhibition entry in assay [3] is “inactive”.
